{"source": "patent US20090246134A1", "about": "“COMPOSITIONS AND METHODS FOR MODULATING GATED ION CHANNELS” (PainCeptor Pharma Corporation, priority 2007, published 2009)", "key": {"[1]": {"system": "native sensory-neuron gated ion channels", "test": "Patch-clamp electrophysiology of sensory neurons in primary culture", "type": "cell-based, rat", "details": "n=3", "description": "This example describes another in vitro assessment of the inhibitory activity of the compounds of the present invention utilizing patch-clamp electrophysiology of sensory neurons in primary culture.\nSensory neurons can be isolated and cultured in vitro from different animal species. The most widely used protocols use sensory neurons isolated from neonatal (Eckert, et al. (1997) J Neurosci Methods 77:183-190) and embryonic (Vasko, et al. (1994) J Neurosci 14:4987-4997) rat. […] Electrophysiology is performed similarly as described above in Example 2. In the voltage-clamp mode, trans-membrane currents are recorded. Compounds A and H at 1 μM inhibit the pH 6.5-induced inward current. In the current-clamp mode, change in the trans-membrane potential are recorded. Under acidic conditions (e.g., pH 6.5) the membrane depolarizes, leading to the firing of action potentials. Compounds A and H at 1 μM inhibit the acid-induced membrane depolarization and reduce the ensuing rate of action potential firing."}, "[2]": {"system": "CFA-induced change in weight bearing in Sprague-Dawley rats", "test": "CFA model of chronic inflammatory pain, hindpaw weight bearing", "type": "in vivo, rat", "details": "24 h after CFA; 60 min after drug; Compound A 5, 10, 20 mg/kg i.p.; Compound H 10, 30, 60 mg/kg; morphine 3, 6, 10 mg/kg; n=7-8", "experimental": "Rats (body weight 260-300 g) were given a s.c. injection of CFA (50% in saline, 100 μl, Sigma) into the plantar surface of the hindpaw under brief halothane anaesthesia. After 24 h, they were then tested for hindpaw weight bearing responses, as assessed using an Incapacitance Tester (Linton Instrumentation, UK), (Zhu et al., 2005). The instrument incorporates a dual channel scale that separately measures the weight of the animal distributed to each hindpaw. While normal rats distribute their body weight equally between the two hindpaws (50-50), the discrepancy of weight distribution between an injured and non-injured paw is a natural reflection of the discomfort level in the injured paw (nocifensive behavior). The rats were placed in the plastic chamber designed so that each hindpaw rested on a separate transducer pad. […] For each rat, three readings from each paw were taken and then averaged. Side-to-side weight bearing difference was calculated as the average of the absolute value of the difference between two hindpaws from three trials (right paw reading-left paw reading).\nHindpaw weight bearing responses were measured in male Sprague-Dawley rats for 2-3 days prior to being given a hindpaw injection of CFA. Twenty-four hours later baseline responses were measured and rats were then administered Compound A (5, 10 and 20 mg/kg, i.p.), Compound H (10, 30 and 60 mg/kg) and morphine (3, 6 and 10 mg/kg). Weight bearing responses were then measured at 30, 60 and 120 min after drug or vehicle injection (data shown at 60 min.). […] All groups n=7-8."}, "[3]": {"system": "formalin-induced pain in Sprague-Dawley rats", "test": "Formalin model of acute tonic pain", "type": "in vivo, rat", "details": "rat, in vivo", "experimental": "Male Sprague-Dawley rats are housed together in groups of three animals under standard conditions with unrestricted access to food and water. All experiments are conducted according to the ethical guidelines for investigations of experimental pain in conscious animals (Zimmerman, 1983)\nAssessment of formalin-induced flinching behavior in normal, uninjured rats (body weight 150-180 g) was made with the use of an Automated Nociception Analyser (University of California, San Diego, USA). Briefly, this involved placing a small C-shaped metal band (10 mm wide×27 mm long) on the hindpaw of the rat to be tested. The rats (four rats were included in each testing session) were then placed in a cylindrical plexiglass observation chamber (diameter 30.5 cm and height 15 cm) for 20 min for adaptation purposes prior to being administered drug or vehicle according to the experimental paradigm being followed. After adaptation, individual rats were then gently restrained and formalin (5% in saline, 50 μl, s.c.) was injected into the plantar surface of the hindpaw using a 27 G needle. Rats were then returned to their separate observation chambers, each of which were in turn situated upon an enclosed detection device consisting of two electromagnetic coils designed to produce an electromagnetic field in which movement of the metal band could be detected. The analogue signal was then digitised and a software algorithm (LabView) applied to enable discrimination of flinching behaviour from other paw movements. A sampling interval of 1 min was used and on the basis of the resulting response patterns 5 phases of nociceptive behaviour were identified and scored: first phase (P1; 0-5 min), interphase (Int; 6-15 min), second phase (P2; […]), phase 2A (P2A; 16-40 min) and phase 2B (P2B; 41-60 min).\nNociceptive behavior was also determined manually every 5 min by measuring the amount of time spent in each of four behavioral categories: 0, treatment of the injected hindpaw is indistinguishable from that of the contralateral paw; 1, the injected paw has little or no weight placed on it; 2, the injected paw is elevated and is not in contact with any surface; 3, the injected paw is licked, bitten, or shaken. A weighted nociceptive score, ranging from 0 to 3 was calculated by multiplying the time spent in each category by the category weight, summing these products, and dividing by the total time for each 5 min block of time. (Coderre et al., Pain 1993; 54: 43). On the basis of the resulting response patterns, 2 phases of nociceptive behavior were identified and scored: first phase (P1; 0-5 min), interphase (Int; 6-15 min), second phase (P2; […]), phase 2A (P2A; 16-40 min) and phase 2B (P2B; 41-60 min).\nStatistical analysis was performed using Prism™ 4.01 software package (GraphPad, San Diego, Calif., USA). The difference in response levels between treatment groups and control vehicle group was analyzed using an ANOVA followed by Bonferroni's method for post-hoc pair-wise comparisons. A p value<0.05 was considered to be significant\nThe effect of Compound A on pain induced by intraplantar formalin injection was investigated. Compound A was administered i.p. 30 min. before the formalin. Compound A was able to reduce the total pain score behavior (flinching, licking, biting) in phase 1 and 2 of the formalin test."}}}
{"smiles": "CCN1CCc2c(-c3ccccc3)cc3c(c2C1)NC(=O)/C3=N/O", "note": "[Compound H, 5-phenyl-6,7,8,9-tetrahydro-3-(hydroxyimino)-8-ethyl-1H-pyrrolo[3,2-h]isoquinoline-2(3H)-one]", "values": [{"measurement": "acid-induced membrane depolarization", "setting": "[1]; current-clamp mode, 1 μM", "result": "inhibit"}, {"measurement": "rate of action potential firing", "setting": "[1]; current-clamp mode, acidic conditions, 1 μM", "result": "reduce"}, {"measurement": "activity of native sensory-neuron gated ion channels", "setting": "[1]", "result": "effectively modulate"}, {"measurement": "pH 6.5-induced inward current", "setting": "[1]; voltage-clamp mode, 1 μM", "result": "inhibit"}, {"measurement": "CFA-induced change in weight bearing compared with vehicle", "setting": "[2]", "result": "marked dose-dependent attenuation"}, {"measurement": "acute tonic pain induced by formalin injection in the paw", "setting": "[3]", "result": "block"}]}
